Measured values taken from ChEMBL document CHEMBL3217507, “3,3-Dimethyl-1H-pyrrolo[3,2-g]quinolin-2(3H)-one derivatives as novel Raf kinase inhibitors” (Medchemcomm, 2013).

Assays:
[1] = Cytotoxicity against human KCC-853 cells after 72 hrs by MTT assay; format: functional, cell-based; settings: KCC-853, 72 h
A549 = assay: Cytotoxicity against human A549 cells after 72 hrs by MTT assay; format: functional, cell-based; settings: A549, 72 h
HepG2 = assay: Cytotoxicity against human HepG2 cells after 72 hrs by MTT assay; format: functional, cell-based; settings: HepG2, 72 h
[2] = molecular target: RAF proto-oncogene serine/threonine-protein kinase (Homo sapiens) (UniProt P04049); assay: Inhibition of c-RAF (unknown origin) using [33P]ATP by […] assay
[3] = molecular target: Hepatocyte growth factor receptor (Homo sapiens) (UniProt P08581); assay: Inhibition of c-MET (unknown origin) at 10 uM
[4] = molecular target: Mast/stem cell growth factor receptor Kit (Homo sapiens) (UniProt P10721); assay: Inhibition of c-Kit (unknown origin) at 10 uM
[5] = molecular target: RAC-alpha serine/threonine-protein kinase (Homo sapiens) (UniProt P31749); assay: Inhibition of AKT1 (unknown origin) at 10 uM
[6] = molecular target: Tyrosine-protein kinase ABL1 (Homo sapiens) (UniProt P00519); assay: Inhibition of ABL1 (unknown origin) at 10 uM
[7] = molecular target: Vascular endothelial growth factor receptor 2 (Homo sapiens) (UniProt P35968); assay: Inhibition of VEGFR2 (unknown origin) at 10 uM
[8] = molecular target: Tyrosine-protein kinase SYK (Homo sapiens) (UniProt P43405); assay: Inhibition of SYK (unknown origin) at 10 uM
[9] = molecular target: Angiopoietin-1 receptor (Homo sapiens) (UniProt Q02763); assay: Inhibition of TIE2 (unknown origin) at 10 uM
[10] = molecular target: Vascular endothelial growth factor receptor 2 (Homo sapiens) (UniProt P35968); assay: Inhibition of KDR (unknown origin) at 10 uM
[11] = molecular target: Serine/threonine-protein kinase PLK1 (Homo sapiens) (UniProt P53350); assay: Inhibition of PLK1 (unknown origin) at 10 uM
Homo sapiens = species: Homo sapiens; assay: Inhibition of PKA (unknown origin) at 10 uM
[12] = molecular target: Platelet-derived growth factor receptor alpha (Homo sapiens) (UniProt P16234); assay: Inhibition of PDGFR-alpha (unknown origin) at 10 uM
[13] = molecular target: Focal adhesion kinase 1 (Homo sapiens) (UniProt Q05397); assay: Inhibition of PTK2 (unknown origin) at 10 uM
[14] = molecular target: Tyrosine-protein kinase JAK2 (Homo sapiens) (UniProt O60674); assay: Inhibition of JAK2 (unknown origin) at 10 uM
[15] = molecular target: Inhibitor of nuclear factor kappa-B kinase subunit beta (Homo sapiens) (UniProt O14920); assay: Inhibition of IKKbeta (unknown origin) at 10 uM
[16] = molecular target: Fibroblast growth factor receptor 1 (Homo sapiens) (UniProt P11362); assay: Inhibition of FGFR1 (unknown origin) at 10 uM
[17] = molecular target: Tyrosine-protein kinase Fyn (Homo sapiens) (UniProt P06241); assay: Inhibition of FYN (unknown origin) at 10 uM
[18] = molecular target: Macrophage colony-stimulating factor 1 receptor (Homo sapiens) (UniProt P07333); assay: Inhibition of FMS (unknown origin) at 10 uM
[19] = molecular target: Receptor-type tyrosine-protein kinase FLT3 (Homo sapiens) (UniProt P36888); assay: Inhibition of FLT3 (unknown origin) at 10 uM
[20] = molecular target: Cyclin-dependent kinase 2 (Homo sapiens) (UniProt P24941); assay: Inhibition of CDK2 (unknown origin) at 10 uM
[21] = molecular target: RAF proto-oncogene serine/threonine-protein kinase (Homo sapiens) (UniProt P04049); assay: Inhibition of c-RAF (unknown origin) at 10 uM

Chain of RAF proto-oncogene serine/threonine-protein kinase (Homo sapiens) (P04049 whole entry): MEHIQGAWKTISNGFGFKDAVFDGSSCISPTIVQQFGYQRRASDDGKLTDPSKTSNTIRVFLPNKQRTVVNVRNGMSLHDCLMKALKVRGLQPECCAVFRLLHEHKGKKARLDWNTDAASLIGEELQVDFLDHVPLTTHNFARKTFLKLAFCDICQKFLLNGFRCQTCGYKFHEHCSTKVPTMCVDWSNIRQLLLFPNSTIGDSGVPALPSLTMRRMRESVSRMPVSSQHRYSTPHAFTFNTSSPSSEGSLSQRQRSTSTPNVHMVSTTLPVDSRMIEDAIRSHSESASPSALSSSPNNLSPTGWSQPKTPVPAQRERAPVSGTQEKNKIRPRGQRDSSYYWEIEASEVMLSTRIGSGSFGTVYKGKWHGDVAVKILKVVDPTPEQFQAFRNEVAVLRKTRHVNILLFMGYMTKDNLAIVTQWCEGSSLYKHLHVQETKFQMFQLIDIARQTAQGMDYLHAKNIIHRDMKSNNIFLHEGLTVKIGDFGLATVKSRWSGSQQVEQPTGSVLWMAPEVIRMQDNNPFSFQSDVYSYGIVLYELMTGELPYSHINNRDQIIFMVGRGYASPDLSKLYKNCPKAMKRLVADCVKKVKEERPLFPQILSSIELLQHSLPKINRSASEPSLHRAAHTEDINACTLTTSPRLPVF
Chain of Vascular endothelial growth factor receptor 2 (Homo sapiens) (P35968 whole entry): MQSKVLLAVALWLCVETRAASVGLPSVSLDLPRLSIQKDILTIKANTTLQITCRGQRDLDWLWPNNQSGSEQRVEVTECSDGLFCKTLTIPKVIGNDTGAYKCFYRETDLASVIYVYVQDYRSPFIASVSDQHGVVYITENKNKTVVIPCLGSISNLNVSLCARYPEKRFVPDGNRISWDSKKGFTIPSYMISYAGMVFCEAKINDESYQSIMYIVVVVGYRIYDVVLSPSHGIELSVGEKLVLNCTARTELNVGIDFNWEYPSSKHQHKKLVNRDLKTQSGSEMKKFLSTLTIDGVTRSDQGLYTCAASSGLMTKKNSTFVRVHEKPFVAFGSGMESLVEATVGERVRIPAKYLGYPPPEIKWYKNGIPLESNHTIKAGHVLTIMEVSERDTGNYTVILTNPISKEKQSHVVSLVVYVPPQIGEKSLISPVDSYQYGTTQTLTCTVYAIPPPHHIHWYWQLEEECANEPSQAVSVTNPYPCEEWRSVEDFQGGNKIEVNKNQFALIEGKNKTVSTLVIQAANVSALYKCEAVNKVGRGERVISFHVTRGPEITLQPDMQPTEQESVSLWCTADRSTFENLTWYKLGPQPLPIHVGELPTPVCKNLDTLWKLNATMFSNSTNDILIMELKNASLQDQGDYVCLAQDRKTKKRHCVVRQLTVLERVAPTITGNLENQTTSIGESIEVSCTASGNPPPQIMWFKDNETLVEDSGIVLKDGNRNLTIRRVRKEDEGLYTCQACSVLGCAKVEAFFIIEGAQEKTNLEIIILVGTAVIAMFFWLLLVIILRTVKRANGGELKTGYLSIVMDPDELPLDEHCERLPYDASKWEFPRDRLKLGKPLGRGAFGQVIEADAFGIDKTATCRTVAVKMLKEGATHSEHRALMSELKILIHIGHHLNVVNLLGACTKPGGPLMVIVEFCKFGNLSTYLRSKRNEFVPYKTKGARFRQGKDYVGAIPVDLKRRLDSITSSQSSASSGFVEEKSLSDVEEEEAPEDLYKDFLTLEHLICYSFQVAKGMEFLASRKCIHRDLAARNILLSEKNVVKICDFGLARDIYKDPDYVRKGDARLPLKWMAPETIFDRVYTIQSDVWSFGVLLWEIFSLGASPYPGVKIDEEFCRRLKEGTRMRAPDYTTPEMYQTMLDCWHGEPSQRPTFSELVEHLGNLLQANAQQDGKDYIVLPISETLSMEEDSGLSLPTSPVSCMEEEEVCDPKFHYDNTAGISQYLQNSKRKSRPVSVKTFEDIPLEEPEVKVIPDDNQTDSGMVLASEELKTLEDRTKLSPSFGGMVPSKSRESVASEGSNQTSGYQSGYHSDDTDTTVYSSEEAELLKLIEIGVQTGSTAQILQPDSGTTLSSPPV
Chain of Mast/stem cell growth factor receptor Kit (Homo sapiens) (P10721 whole entry): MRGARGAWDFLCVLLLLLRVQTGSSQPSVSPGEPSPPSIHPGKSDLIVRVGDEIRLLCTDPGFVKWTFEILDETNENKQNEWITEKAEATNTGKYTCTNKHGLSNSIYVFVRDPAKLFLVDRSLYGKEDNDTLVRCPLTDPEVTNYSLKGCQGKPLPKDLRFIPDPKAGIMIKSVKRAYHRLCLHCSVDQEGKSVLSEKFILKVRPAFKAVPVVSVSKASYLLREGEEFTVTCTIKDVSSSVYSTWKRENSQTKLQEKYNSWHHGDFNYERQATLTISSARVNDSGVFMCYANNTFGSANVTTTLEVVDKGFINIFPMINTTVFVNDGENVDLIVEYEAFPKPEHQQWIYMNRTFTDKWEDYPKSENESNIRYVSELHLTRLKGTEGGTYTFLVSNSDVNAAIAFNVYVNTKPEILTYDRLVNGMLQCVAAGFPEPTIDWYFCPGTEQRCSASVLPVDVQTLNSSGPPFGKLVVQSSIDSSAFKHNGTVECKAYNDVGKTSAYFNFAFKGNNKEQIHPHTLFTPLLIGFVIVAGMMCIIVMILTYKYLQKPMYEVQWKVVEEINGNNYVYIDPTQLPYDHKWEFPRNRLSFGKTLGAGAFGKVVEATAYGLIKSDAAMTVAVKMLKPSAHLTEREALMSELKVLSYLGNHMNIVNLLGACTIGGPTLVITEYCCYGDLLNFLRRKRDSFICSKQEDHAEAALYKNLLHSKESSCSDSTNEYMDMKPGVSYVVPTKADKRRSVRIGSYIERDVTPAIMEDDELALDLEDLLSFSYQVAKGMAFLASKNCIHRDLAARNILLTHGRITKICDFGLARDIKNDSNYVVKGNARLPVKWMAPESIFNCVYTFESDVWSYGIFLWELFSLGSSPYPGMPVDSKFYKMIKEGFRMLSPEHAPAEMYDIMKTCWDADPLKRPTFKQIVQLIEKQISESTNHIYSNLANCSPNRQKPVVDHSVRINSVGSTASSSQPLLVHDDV
Chain of RAC-alpha serine/threonine-protein kinase (Homo sapiens) (P31749 whole entry): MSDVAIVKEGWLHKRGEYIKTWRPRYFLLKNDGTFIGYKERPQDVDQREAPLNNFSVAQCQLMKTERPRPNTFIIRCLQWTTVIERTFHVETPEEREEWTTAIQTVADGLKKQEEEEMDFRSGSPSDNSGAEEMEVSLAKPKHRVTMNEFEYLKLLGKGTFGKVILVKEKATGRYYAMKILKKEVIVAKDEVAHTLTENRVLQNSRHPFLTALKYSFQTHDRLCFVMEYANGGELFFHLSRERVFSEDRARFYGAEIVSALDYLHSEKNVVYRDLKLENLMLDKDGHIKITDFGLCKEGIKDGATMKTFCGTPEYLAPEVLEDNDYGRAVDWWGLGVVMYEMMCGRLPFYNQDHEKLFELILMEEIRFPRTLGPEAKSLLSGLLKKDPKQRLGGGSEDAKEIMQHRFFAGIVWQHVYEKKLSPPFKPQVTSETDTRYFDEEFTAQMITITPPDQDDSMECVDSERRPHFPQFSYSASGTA
Chain of Hepatocyte growth factor receptor (Homo sapiens) (P08581 whole entry): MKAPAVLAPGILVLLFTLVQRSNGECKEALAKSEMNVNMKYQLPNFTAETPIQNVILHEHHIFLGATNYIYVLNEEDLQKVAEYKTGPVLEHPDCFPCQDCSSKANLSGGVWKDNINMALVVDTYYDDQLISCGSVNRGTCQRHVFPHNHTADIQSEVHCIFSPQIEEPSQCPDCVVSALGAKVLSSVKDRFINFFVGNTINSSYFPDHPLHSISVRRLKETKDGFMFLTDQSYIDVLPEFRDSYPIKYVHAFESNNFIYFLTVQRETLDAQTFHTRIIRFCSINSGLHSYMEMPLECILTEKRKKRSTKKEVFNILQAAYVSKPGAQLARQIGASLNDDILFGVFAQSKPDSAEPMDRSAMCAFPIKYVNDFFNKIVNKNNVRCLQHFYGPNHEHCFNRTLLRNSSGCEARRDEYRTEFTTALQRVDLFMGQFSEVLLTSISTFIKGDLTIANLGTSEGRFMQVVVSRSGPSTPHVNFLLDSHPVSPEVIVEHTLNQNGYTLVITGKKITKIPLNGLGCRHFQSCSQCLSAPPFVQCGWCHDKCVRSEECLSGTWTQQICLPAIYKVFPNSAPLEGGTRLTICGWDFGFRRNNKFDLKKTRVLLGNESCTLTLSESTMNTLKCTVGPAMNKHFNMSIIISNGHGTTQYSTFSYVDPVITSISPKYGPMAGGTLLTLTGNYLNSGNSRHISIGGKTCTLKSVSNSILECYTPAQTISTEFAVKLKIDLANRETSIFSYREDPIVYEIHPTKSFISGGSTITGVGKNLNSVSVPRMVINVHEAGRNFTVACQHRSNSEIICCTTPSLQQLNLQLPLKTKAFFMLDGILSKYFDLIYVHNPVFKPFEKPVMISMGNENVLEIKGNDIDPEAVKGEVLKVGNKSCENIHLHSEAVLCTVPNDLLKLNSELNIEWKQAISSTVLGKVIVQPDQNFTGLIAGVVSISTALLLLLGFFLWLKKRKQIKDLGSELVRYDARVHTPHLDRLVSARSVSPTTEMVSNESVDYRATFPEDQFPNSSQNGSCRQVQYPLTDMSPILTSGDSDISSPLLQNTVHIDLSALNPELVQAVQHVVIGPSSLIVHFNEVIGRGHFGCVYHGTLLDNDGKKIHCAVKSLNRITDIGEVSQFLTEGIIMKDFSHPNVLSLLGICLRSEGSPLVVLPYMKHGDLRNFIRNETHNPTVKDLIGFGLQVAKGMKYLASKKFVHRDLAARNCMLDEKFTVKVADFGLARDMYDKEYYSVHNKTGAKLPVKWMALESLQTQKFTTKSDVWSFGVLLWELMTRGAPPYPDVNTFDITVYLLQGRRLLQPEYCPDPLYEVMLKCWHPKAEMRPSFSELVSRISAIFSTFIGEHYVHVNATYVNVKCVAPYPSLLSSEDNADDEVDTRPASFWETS

| IC50 [2] | Compound | IC50 [1] | IC50 (A549) | IC50 (HepG2) | further results |
| --- | --- | --- | --- | --- | --- |
| 0.0272 µM | Cc1cc(NC(=O)Nc2ccc(Oc3ccnc4cc5c(cc34)C(C)(C)C(=O)N5)c(F)c2)no1 | 4.18 µM | 5.03 µM | 12 µM | – |
| 0.0373 µM | CC1(C)C(=O)Nc2cc3nccc(Oc4ccc(NC(=O)Nc5cccc(F)c5)cc4)c3cc21 | 10.6 µM | 5.46 µM | 12 µM | – |
| 0.0285 µM | CNC(=O)c1cc(Oc2ccc(NC(=O)Nc3ccc(Cl)c(C(F)(F)F)c3)cc2)ccn1 [SORAFENIB] | 6.78 µM | 5.23 µM | 12.7 µM | – |
| 0.0521 µM | Cc1cccc(C)c1NC(=O)Nc1ccc(Oc2ccnc3cc4c(cc23)C(C)(C)C(=O)N4)cc1 | 10.3 µM | 10.5 µM | 20.3 µM | – |
| 0.0087 µM | CC1(C)C(=O)Nc2cc3nccc(Oc4ccc(NC(=O)Nc5ccc(F)c(C(F)(F)F)c5)cc4Cl)c3cc21 | 1.1 µM | 0.916 µM | 6.36 µM | inhibition [3]: 1.5%; inhibition [4]: 18.7%; inhibition [5]: 16.5%; inhibition [6]: 26.2%; inhibition [7]: 34.1%; inhibition [8]: 15%; inhibition [9]: 22.3%; inhibition [10]: 1.4%; inhibition [11]: 4.9%; inhibition (Homo sapiens): 1.3%; inhibition [12]: 0.3%; inhibition [13]: 3.6%; inhibition [14]: 0.2%; inhibition [15]: 4.7%; inhibition [16]: 20.2%; inhibition [17]: 0.6%; inhibition [18]: 46.9%; inhibition [19]: 15.3%; inhibition [20]: 7.8%; inhibition [21]: 94.6% |
| 0.0281 µM | Cc1cccc(C)c1NC(=O)Nc1ccc(Oc2ccnc3cc4c(cc23)C(C)(C)C(=O)N4)c(Cl)c1 | 4.39 µM | 3.85 µM | 11.2 µM | – |
| 0.0252 µM | CC1(C)C(=O)Nc2cc3nccc(Oc4ccc(NC(=O)Nc5cccc(F)c5)cc4F)c3cc21 | 5.64 µM | 7.71 µM | 15.5 µM | – |
| 0.0221 µM | CC1(C)C(=O)Nc2cc3nccc(Oc4ccc(NC(=O)Nc5cccc(F)c5)cc4Cl)c3cc21 | 6.49 µM | 4.38 µM | 7.35 µM | – |
| 0.0187 µM | Cc1cc(NC(=O)Nc2ccc(Oc3ccnc4cc5c(cc34)C(C)(C)C(=O)N5)c(Cl)c2)no1 | 5.86 µM | 5.76 µM | 8.46 µM | – |
| 0.0147 µM | CC1(C)C(=O)Nc2cc3nccc(Oc4ccc(NC(=O)Nc5ccc(F)c(C(F)(F)F)c5)cc4)c3cc21 | 4.23 µM | 3.2 µM | 9.56 µM | – |
| 0.0303 µM | Cc1cccc(C)c1NC(=O)Nc1ccc(Oc2ccnc3cc4c(cc23)C(C)(C)C(=O)N4)c(F)c1 | 3.75 µM | 4.07 µM | 10.3 µM | – |
| 0.0159 µM | CC1(C)C(=O)Nc2cc3nccc(Oc4ccc(NC(=O)Nc5ccc(F)c(C(F)(F)F)c5)cc4F)c3cc21 | 2.85 µM | 2.16 µM | 8.09 µM | – |
| 0.0585 µM | Cc1cc(NC(=O)Nc2ccc(Oc3ccnc4cc5c(cc34)C(C)(C)C(=O)N5)cc2)no1 | 10.1 µM | 6.47 µM | 31.7 µM | – |
